Assay results reported in PubChem BioAssay (NCI).
Several values for one entry are separate records, joined by “and”; a condition that tells them apart may be missing. Equal values may be shown once.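 All cell lines were grown in 96-well plates and treated with compound for 48 hours. The concentration for 50% growth inhibition is given as GI50. TGI is the concentration that stops growth completely.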 Where a SMILES comes first, the peptide text is derived from it. [ ]: non-standard residue; d: D form. 2Nal = N[CH](Cc1ccc2ccccc2c1)C(=O)O

How the values were obtained:
Assay in all cases: inhibition of tumour cell growth, NCI panel, 48 h
XF 498 CNS = system: XF 498 CNS
KM20L2 colon = system: KM20L2 colon
OVCAR-8 ovarian = system: OVCAR-8 ovarian
MALME-3M melanoma = system: MALME-3M melanoma
UACC-257 melanoma = system: UACC-257 melanoma
LXFL 529 NSCLC = system: LXFL 529 NSCLC
SK-MEL-28 melanoma = system: SK-MEL-28 melanoma
DLD-1 colon = system: DLD-1 colon
SNB-78 CNS = system: SNB-78 CNS
T-47D breast = system: T-47D breast

Structure (SMILES) | TGI (XF 498 CNS) [µM] | TGI (KM20L2 colon) [µM] | TGI (OVCAR-8 ovarian) | TGI (MALME-3M melanoma) | TGI (UACC-257 melanoma) | TGI (LXFL 529 NSCLC) [µM] | TGI (SK-MEL-28 melanoma) | TGI (DLD-1 colon) [µM] | TGI (SNB-78 CNS) | GI50 (OVCAR-8 ovarian) [nM] | GI50 (UACC-257 melanoma) [nM] | TGI (T-47D breast) [µM] | GI50 (MALME-3M melanoma) [nM] | GI50 (T-47D breast) [nM] | GI50 (SK-MEL-28 melanoma) [nM] | GI50 (SNB-78 CNS) [nM] | GI50 (XF 498 CNS) [nM] | GI50 (KM20L2 colon) [µM] | GI50 (DLD-1 colon) [nM]
O=C(c1ccccc1)c1c(CC(O)c2ccccc2)n(C(=O)c2ccccc2)c2ccccc12 (configuration not stated) | > 100 | > 100 | > 100 µM | > 100 µM | > 100 µM | > 100 | > 100 µM | > 100 |  |  |  |  |  |  |  |  |  |  | 
NNC(=O)N/N=C1\C(=O)N(c2nccs2)C(=O)C(=O)C1c1nc2ccccc2s1 (configuration not stated) | > 100 | > 100 | > 100 µM | > 100 µM | > 100 µM | > 100 | > 100 µM | > 100 | > 100 µM |  |  |  |  |  |  |  |  |  | 
CN(C)CCNC(=O)c1cccc2ncc(-c3ccccc3)nc12 |  | 38 | > 93 µM | 26.5 µM | 31.3 µM | 53.7 | 36.1 µM | 44.9 | 40 µM |  |  |  |  |  |  |  |  |  | 
Cc1c(C2Cc3ccccc3N2)c2ccccc2n1C (configuration not stated) | > 100 | > 100 | > 100 µM | > 100 µM | > 100 µM | > 100 |  | > 100 | > 100 µM |  |  |  |  |  |  |  |  |  | 
CC(C)C(NC(=O)C(CCCCN)NC(=O)C(Cc1c[nH]c2ccccc12)NC(=O)C(Cc1ccc(O)cc1)NC(=O)C(CS)NC(=O)C(N)Cc1ccc2ccccc2c1)C(=O)NC(CS)C(=O)NC(C(N)=O)C(C)O (configuration not stated) (H-[2Nal]CYWKVCT-NH2; configuration not given here) | > 100 | > 100 | > 100 µM | > 12.5 µM | > 100 µM | > 100 | > 100 µM | > 100 | 23.2 µM | > 100000 | > 100000 | > 12.5 |  |  |  |  |  |  | 
COc1cc(CC(C(=O)O)C(=O)O)c(OC)cc1CC(C(=O)O)C(=O)O | > 100 | > 100 | > 100 µM | > 100 µM | > 100 µM | > 100 |  | > 100 | > 100 µM |  |  |  |  |  |  |  |  |  | 
CCOC(=O)C1SC(=Nc2ccc(Cl)cc2C)N=C1C (configuration not stated) | 40 | 32.1 | > 100 µM | 39.2 µM | 51.9 µM | 45.6 | 73.5 µM | 35.9 | 76.7 µM |  |  |  |  |  |  |  |  |  | 
O=C(O)CC1CC=C[C@H]2c3cc4c(cc3C(=O)NC12)OCO4 (some centres not stated) |  | > 75 | > 75 µM | > 75 µM | > 75 µM | > 75 | > 75 µM | > 75 | > 75 µM |  |  |  |  |  |  |  |  |  | 
CN(O)C(=S)c1ccccc1 | > 100 | > 100 | 33.2 µM | > 100 µM | 57.8 µM | > 23 | > 100 µM | 4.52 | > 100 µM |  |  | > 100 |  |  |  |  |  |  | 
O=C1C(=O)N(c2cccc(C(F)(F)F)c2)C(=O)C(=O)C1c1nc2ccccc2s1 | > 100 | > 100 | > 53.8 µM | > 100 µM | > 100 µM | > 100 | > 100 µM | > 100 | > 100 µM |  |  | > 100 |  |  |  |  |  |  | 
CCN(CC)CC(C)(C)C(=O)/C=C/c1ccc(/C=C/C(=O)C(C)(C)CN(CC)CC)cc1 | 1.03 | 2.51 | 0.774 µM | 2.79 µM | 4.26 µM | 0.417 | 2.28 µM | 1.26 | 4.64 µM |  |  | 3.21 |  |  |  |  |  |  | 
COCOCC[C@@H]1CC=CC(NC(=O)OCc2ccccc2)C1/C=C/C(=O)CCC1OCCO1 (some centres not stated) | > 100 | > 93.3 | 39.3 µM | > 100 µM | 66.3 µM | 73 | > 63.3 µM | 33.4 | > 100 µM |  |  |  |  |  |  |  |  |  | 
C=C1C(=O)OC2C1C(OC(=O)/C(C)=C\C)CC1(CO1)C1C(O)C=C(C)C21O (configuration not stated) | 25.7 | 10.8 | 6.03 µM | 7.65 µM | 21.7 µM | 3.42 | 13.2 µM | 7.8 | 34.9 µM |  |  |  |  |  |  |  |  |  | 
OC1CCC[C@@H]1Sc1ccccc1 (some centres not stated) | > 100 | > 100 | > 100 µM |  | > 100 µM | > 100 | > 100 µM | > 100 | > 100 µM |  |  |  |  |  |  |  |  |  | 
Cn1nc(-c2ccccc2)c(C(=O)/C=C/c2ccc(F)cc2)c(N2CCOCC2)c1=O | 42.7 | 31.6 | > 100 µM |  |  | 30.9 | 31.5 µM | > 100 |  |  |  |  |  |  |  |  |  |  | 
Cc1nc(Nc2ccccc2)sc1C(=O)CC(=O)C(=O)NC12CC3CC(CC(C3)C1)C2 | > 100 | > 100 | > 100 µM | > 100 µM | > 100 µM | > 100 | > 100 µM | > 100 | > 100 µM |  |  |  |  |  |  |  |  |  | 

Structure (SMILES) | TGI (XF 498 CNS) [µM] | TGI (KM20L2 colon) [µM] | TGI (OVCAR-8 ovarian) | TGI (MALME-3M melanoma) | TGI (UACC-257 melanoma) | TGI (LXFL 529 NSCLC) [µM] | TGI (SK-MEL-28 melanoma) | TGI (DLD-1 colon) [µM] | TGI (SNB-78 CNS) | GI50 (OVCAR-8 ovarian) [nM] | GI50 (UACC-257 melanoma) [nM] | TGI (T-47D breast) [µM] | GI50 (MALME-3M melanoma) [nM] | GI50 (T-47D breast) [nM] | GI50 (SK-MEL-28 melanoma) [nM] | GI50 (SNB-78 CNS) [nM] | GI50 (XF 498 CNS) [nM] | GI50 (KM20L2 colon) [µM] | GI50 (DLD-1 colon) [nM]
NC(=Nc1nc(-c2ccccn2)cc2ccccc12)c1ccccn1 | 0.0644 | > 100 | 15.5 µM |  | 0.794 µM and 1.15 µM | > 100 | > 100 µM | 0.378 | > 100 µM | 50.5 |  |  | 126 | 6.36 | 323 |  |  |  | 
CC(=O)ON(C(C)=O)C1C(COC(c2ccccc2)(c2ccccc2)c2ccccc2)OC2OC3(CCCC3)OC21 (configuration not stated) | > 100 | > 100 | > 100 µM | > 100 µM | > 100 µM |  | > 100 µM | > 100 |  |  |  |  |  |  |  |  |  |  | 
COc1ccc(/C=C\c2cc(OC)c(OC)c(OC)c2)c(O)c1O |  | 76.9 | 7.13 µM and 9.64 µM | 27.1 µM and 129 µM | 28.7 µM and 52.3 µM | 12.8 | 49.6 µM and 60.2 µM | > 85.8 | > 89.6 µM and 48.5 µM | 51.7 | 142 | > 79.7 |  |  | 655 | 1860 | 2950 | 26.6 | 1520
C#CCN(N=O)C(=O)NCCCC(NC(C)=O)C(=O)NCc1ccccc1 (configuration not stated) | 84.4 | > 100 | > 100 µM | > 100 µM | > 100 µM | > 100 | > 100 µM | > 100 | > 100 µM |  |  |  |  |  |  |  |  |  | 
O=C(O)CCSC(=S)Nc1cccc(F)c1 |  | > 100 | > 100 µM | > 100 µM | 53.2 µM | > 100 | 83.1 µM | > 100 | > 100 µM |  |  |  |  |  |  |  |  |  | 
COc1cc2c(cc1OC)c1c(OC)c(OC)cc3c1c1c2sc(=S)n1CC3 |  | > 100 | > 100 µM | > 100 µM | > 100 µM | > 100 | > 100 µM | > 100 | > 100 µM |  |  |  |  |  |  |  |  |  | 
CC(=O)NC(CCCCN(Cc1ccccc1)C(=O)N(CCCl)N=O)C(=O)NCc1ccccc1 (configuration not stated) | > 49.8 | > 69.5 | 43.2 µM | 58.1 µM | > 44.6 µM | > 100 | > 100 µM | > 79 | > 100 µM |  |  | 36.7 |  |  |  |  |  |  | 
CC(=O)O/N=C(Cl)/C(Cl)=N/OC(C)=O | > 100 | > 100 | > 100 µM | > 100 µM | > 100 µM | > 100 | > 100 µM | > 100 | > 100 µM |  |  |  |  |  |  |  |  |  | 
O=C(O)CCSC(=O)Nc1ccccc1Cl | > 100 | > 100 | > 100 µM | > 100 µM | > 100 µM | > 100 | > 100 µM | > 100 | > 100 µM |  |  |  |  |  |  |  |  |  | 
CCOC(=O)NC(=O)c1cn(CCN2CCNCC2)c(=O)[nH]c1=O | > 100 |  | > 100 µM |  |  | > 100 | > 100 µM | > 100 | > 100 µM |  |  |  |  |  |  |  |  |  | 
COc1ccc(C[C@H](N)C(=O)N2C[C@@H](CO)C[C@@H](n3cnc4c(N(C)C)ncnc43)C2)cc1 |  | > 100 | > 100 µM | > 100 µM | > 100 µM | > 100 | > 100 µM | > 100 | > 100 µM |  |  |  |  |  |  |  |  |  | 
CC(=N)N(C)O | > 100 | > 100 | > 100 µM | > 100 µM | > 100 µM | > 100 | > 100 µM | > 100 | > 100 µM |  |  |  |  |  |  |  |  |  | 
N#Cc1cc(NC(=O)c2ccccc2)c(=O)n2c1[nH]c1ccccc12 | > 100 | > 100 | > 100 µM | 83 µM | > 100 µM | > 100 | 67.7 µM | > 100 | > 100 µM |  |  |  |  |  |  |  |  |  | 
CC1=C2[C@H](c3ccccc3)C3C=CC2(c2ccccc23)N(C(=O)C(c2ccccc2)c2ccccc2)C1=O (some centres not stated) | > 100 | > 100 | > 100 µM | > 100 µM | > 100 µM | > 100 | > 100 µM | > 100 |  |  |  |  |  |  |  |  |  |  | 
CN(C)CCC1(C2=CCCC2)CC/C(=C\c2ccccc2Cl)C1=O (configuration not stated) |  | 24.6 | 29.3 µM | 28 µM | 28.4 µM | 23.9 | 26.2 µM | 37.4 | 29 µM |  |  |  |  |  |  |  |  |  | 
